Measured values reported in ChEMBL document CHEMBL1201862, “PubChem BioAssay data set” (2004).
Counter-ions that a name gives are not always drawn. Activity calls are given as the source filed them.

Columns and labels:
[1] = target: T1, Oxysterols receptor LXR-beta (Homo sapiens, UniProt P55055); test: LXR agonists, Gal4 luciferase reporter, dose response, counter-screen for ssDAF-12 agonist project, cell-based, luminescence, HEK293, S. stercoralis campaign (AID 720737); format: functional; settings: read-out: IC50 (the source's name)
T1 sequence (P55055 whole entry): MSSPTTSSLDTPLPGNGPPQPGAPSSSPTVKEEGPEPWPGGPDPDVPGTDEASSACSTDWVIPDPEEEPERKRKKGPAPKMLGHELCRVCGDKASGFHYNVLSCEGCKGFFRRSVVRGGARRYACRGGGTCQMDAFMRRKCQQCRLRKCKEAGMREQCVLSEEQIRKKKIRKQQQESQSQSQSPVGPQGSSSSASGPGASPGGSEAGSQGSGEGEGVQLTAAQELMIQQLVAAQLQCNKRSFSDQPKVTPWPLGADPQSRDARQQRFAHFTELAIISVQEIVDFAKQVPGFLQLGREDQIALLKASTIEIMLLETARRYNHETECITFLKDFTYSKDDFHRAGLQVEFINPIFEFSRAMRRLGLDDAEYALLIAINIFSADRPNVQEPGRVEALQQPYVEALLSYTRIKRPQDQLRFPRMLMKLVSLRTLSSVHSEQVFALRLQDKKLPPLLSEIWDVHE

[2] = Luminescence-based cell-based high throughput dose response assay to identify activators of the DAF-12 from the parasite S. stercoralis (ssDAF-12).; format: functional
[3] = inhibitors of HIV Env-driven cell fusion, dose response, cherry-pick (AID 652057); format: functional, cell-based
[4] = inhibitors of clade B AD8 Env fusion, dose response, cell-based, cherry-pick (AID 652062); format: functional;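 further: luciferase signal from cell-cell fusion driven by HIV-1 clade B AD8 Env; potency is for inhibitors of fusion seen as a drop in luminescence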
[5] = ZM109 Env clade C HIV-1 fusion inhibitors, dose response, HeLa effector, CEM target cells, luciferase, cherry-pick (AID 652058); format: functional, cell-based
Streptococcus = test: Group A Streptococcus viability loss, dose response, counter-screen for streptokinase expression inhibitor project, luminescence, BacTiterGlo (AID 1915); format: functional, organism-based;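 further: potency for reduction of bacterial viability or growth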
[6] = CEM21 lymphoblast cell cytotoxicity, dose response, cytotoxicity control for viral fusion inhibitor project, CellTiter-Glo luminescence, cherry-picked (AID 652042); format: functional, cell-based;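 further: potency for signal decrease meaning cytotoxicity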
[7] = off-target signal loss in HeLa-CEM21 co-culture – HeLa F-luc CTL cells, cherry-picked, counter-screen for HIV-1 Env fusion inhibitor project, dose response (AID 652040); format: functional, cell-based;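 further: potency for signal decrease marking cytotoxic or nonspecific inhibition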
[8] = test system: Streptococcus sp. 'group A'; test: growth inhibition of control SK(-) GAS strain, dose response, counter-screen for streptokinase expression inhibitor project, luminescence, kanamycin, BacTiterGlo, confirmation (AID 1900); format: functional, organism-based
INS1 = test: beta cell apoptosis inhibitors, cytokine rescue, dose response, luminescence, retest (AID 449756); format: functional, cell-based; settings: Rattus norvegicus;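 further: cell death triggered by IL-1 beta plus TNF-alpha plus IFN-gamma mixture; protective hits raise ATP signal compared with cytokine alone wells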
[9] = target: Disintegrin and metalloproteinase domain-containing protein 17 (Homo sapiens, UniProt P78536); test: exosite inhibitors of ADAM17, dose response, biochemical (AID 743260)
HEK293 = test: inhibitors of LMP1-driven NF-kB reporter, dose response, cell-based, HEK293, luciferase, cherry-pick (AID 588343); format: functional; settings: Homo sapiens
[10] = target: T2, Trace amine-associated receptor 1 (Homo sapiens, UniProt Q96RJ0); test: Fluorescence-based cell-based high throughput dose response assay to identify agonists of the human trace amine associated receptor 1 (TAAR1).; format: functional
T2 sequence (Q96RJ0 whole entry): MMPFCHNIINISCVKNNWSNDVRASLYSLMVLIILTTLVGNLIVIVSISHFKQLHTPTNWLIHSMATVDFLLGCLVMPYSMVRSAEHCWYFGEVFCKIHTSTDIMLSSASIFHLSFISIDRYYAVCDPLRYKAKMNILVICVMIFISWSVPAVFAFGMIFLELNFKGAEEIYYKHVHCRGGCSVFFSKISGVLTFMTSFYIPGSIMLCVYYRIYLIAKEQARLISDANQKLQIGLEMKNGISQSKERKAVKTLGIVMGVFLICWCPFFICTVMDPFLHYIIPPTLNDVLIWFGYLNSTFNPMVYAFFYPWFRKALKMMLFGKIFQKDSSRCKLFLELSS

cells [11] = format: functional, cell-based
[12] = target: T2, Trace amine-associated receptor 1; test: Counterscreen for agonists of the human trace amine associated receptor 1 (hTAAR1): Fluorescence-based cell-based high throughput dose response assay to identify hTAAR1 agonist that also desensitize TAAR1 receptor response.; format: functional
cells [13] = format: functional, cell-based; remark: listed apart in the source
[14] = ADAM10 protease inhibitors, dose response, selectivity assay for ADAM17 exosite inhibitor project, biochemical, FRET peptide substrate, recombinant human ADAM10 (AID 743259);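 further: ADAM10 enzyme cleaving a FRET peptide substrate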
cells [15] = test: cells
[16] = target: T1, Oxysterols receptor LXR-beta; format: functional, cell-based
[17] = T. cruzi intracellular amastigote growth inhibition, dose response, imaging, CA-I/72 strain, bovine embryo skeletal muscle, dry powder (AID 651885); format: functional, cell-based
[18] = growth inhibition of intracellular T. cruzi, dose response, cell-based, plate reader, dry powder samples (AID 651845); format: functional
[19] = T. cruzi growth inhibition in host cells, dose response, cell-based, plate reader, dry powder, set 2 (AID 652275); format: functional
[20] = intracellular Trypanosoma cruzi inhibitors in host cells – cell-based, plate reader, cherry-pick samples, set 3, dose response (AID 651818); format: functional;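 further: compounds incubated with infected cells for about four days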
[21] = HEK293T cytotoxicity, dose response, cytotoxicity control for miR-122 modulator project, cell-based, activator set, cherry-pick (AID 720690); format: functional;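 further: HEK293T human cells scored for general mammalian cytotoxicity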
[22] = NIH:OVCAR-3 ovarian cancer cell cytotoxicity, dose response, PAX8 inhibitor project, plate reader, dry powder samples (AID 743044); format: functional, cell-based
Paired box protein Pax-8 = Paired box protein Pax-8 (Homo sapiens, UniProt Q06710); test: inhibitors of PAX8-driven TPO luciferase reporter, dose response, RMG-I cells, cherry-pick (AID 687027); format: functional, cell-based;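 further: luciferase reporter driven by Pax8 target thyroperoxidase promoter measured by SteadyGlo luminescence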
[23] = cytotoxicity in OVCAR8 ovarian cancer cells, dose response, PAX8 project, cell-based, plate reader, dry powder samples (AID 743197); format: functional; settings: OVCAR-8
[24] = ADAM10 inhibitors, peptide cleavage, dose response, biochemical, QFRET (AID 743254);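 further: ADAM10 enzyme with the DM2 quenched FRET peptide as substrate; EDANS fluorescence gain as the protease cuts the substrate; inhibitor potency against ADAM10 proteolytic activity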
[25] = target: Potassium channel subfamily K member 3 (Homo sapiens, UniProt O14649); test: TASK1 (KCNK3) potassium channel inhibitors, SAR follow-up, CHO cells, FluxOR thallium flux (AID 652212); format: functional
[26] = target: Potassium channel subfamily K member 9 (Homo sapiens, UniProt Q9NPC2); test: TASK3 (KCNK9) channel inhibitors, thallium flux, SAR follow-up, selectivity assay for TASK1 inhibitor project, cell-based, FluxOR thallium flux, concentration-response (AID 652211); format: functional;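 further: potency is for inhibitors of the channel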
[27] = target: T3, Beta-2 adrenergic receptor (Homo sapiens, UniProt P07550); test: beta2AR agonists driving receptor internalization, dose response, cell-based, FAP fluorogen, flow cytometry, cherry pick 1 (AID 588763); format: functional
[28] = HEp-2 cell cytotoxicity, dose response, cytotoxicity control for RSV inhibitor project, HTS (AID 2410); format: functional; settings: human respiratory syncytial virus
Streptokinase A = target: T4, Streptokinase A (Streptococcus pyogenes serotype M1, UniProt P10520); test: S. pyogenes streptokinase expression inhibitors, potency, dose response, plasminogen activation absorbance, OD405 (AID 1914); format: functional, Streptococcus pyogenes M1 GAS;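 further: secreted streptokinase activity via plasminogen activation per viability signal from cell pellet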
T4 sequence (P10520 whole entry): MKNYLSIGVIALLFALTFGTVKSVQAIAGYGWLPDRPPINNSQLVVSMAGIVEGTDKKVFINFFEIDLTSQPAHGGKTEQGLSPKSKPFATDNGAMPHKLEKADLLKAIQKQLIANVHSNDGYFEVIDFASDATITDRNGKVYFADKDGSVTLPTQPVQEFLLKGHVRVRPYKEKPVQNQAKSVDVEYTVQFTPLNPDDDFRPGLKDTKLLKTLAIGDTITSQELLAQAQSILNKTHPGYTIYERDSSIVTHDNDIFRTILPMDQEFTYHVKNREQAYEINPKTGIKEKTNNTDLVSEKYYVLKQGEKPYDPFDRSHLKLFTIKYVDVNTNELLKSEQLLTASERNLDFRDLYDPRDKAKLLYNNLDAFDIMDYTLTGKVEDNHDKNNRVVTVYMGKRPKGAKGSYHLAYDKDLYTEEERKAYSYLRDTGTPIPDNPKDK

[29] = P. falciparum late gametocyte killing, dose response, luminescence (AID 1117278); format: functional, cell-based;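 further: gametocytes exposed to compound for 24 hours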
[30] = target: T3, Beta-2 adrenergic receptor; test: Dose response for HTS for Beta-2AR agonists via FAP method from Powderset3.; format: functional
[31] = Jurkat T cell cytotoxicity, dose response, cytotoxicity control for P. falciparum gametocyte viability project, luminescence (AID 1117277); format: functional, cell-based;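 further: potency reflects loss of cellular ATP meaning fewer viable cells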

Chain of Disintegrin and metalloproteinase domain-containing protein 17 (P78536 whole entry, the tested form may be a part): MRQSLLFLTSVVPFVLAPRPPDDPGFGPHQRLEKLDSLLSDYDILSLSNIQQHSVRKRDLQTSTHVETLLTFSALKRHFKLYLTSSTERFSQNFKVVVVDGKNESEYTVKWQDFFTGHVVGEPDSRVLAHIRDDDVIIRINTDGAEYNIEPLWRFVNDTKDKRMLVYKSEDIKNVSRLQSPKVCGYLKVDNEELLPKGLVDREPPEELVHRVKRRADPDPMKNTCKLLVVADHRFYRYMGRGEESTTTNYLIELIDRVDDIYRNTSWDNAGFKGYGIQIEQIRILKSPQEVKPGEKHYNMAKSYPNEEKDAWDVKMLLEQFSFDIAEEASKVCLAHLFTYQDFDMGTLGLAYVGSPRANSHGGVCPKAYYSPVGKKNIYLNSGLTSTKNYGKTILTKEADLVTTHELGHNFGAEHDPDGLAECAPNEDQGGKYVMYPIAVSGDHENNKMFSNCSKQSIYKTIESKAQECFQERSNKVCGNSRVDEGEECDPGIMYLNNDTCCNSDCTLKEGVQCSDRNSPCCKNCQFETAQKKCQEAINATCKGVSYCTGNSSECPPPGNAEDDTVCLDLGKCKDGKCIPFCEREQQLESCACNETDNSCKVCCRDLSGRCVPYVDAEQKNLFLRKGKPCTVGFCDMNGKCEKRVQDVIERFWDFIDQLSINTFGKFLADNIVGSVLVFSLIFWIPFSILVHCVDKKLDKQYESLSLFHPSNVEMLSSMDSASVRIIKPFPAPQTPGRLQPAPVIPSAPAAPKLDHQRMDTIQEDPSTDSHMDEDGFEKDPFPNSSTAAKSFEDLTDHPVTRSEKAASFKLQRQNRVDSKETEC
T3 sequence (P07550 whole entry): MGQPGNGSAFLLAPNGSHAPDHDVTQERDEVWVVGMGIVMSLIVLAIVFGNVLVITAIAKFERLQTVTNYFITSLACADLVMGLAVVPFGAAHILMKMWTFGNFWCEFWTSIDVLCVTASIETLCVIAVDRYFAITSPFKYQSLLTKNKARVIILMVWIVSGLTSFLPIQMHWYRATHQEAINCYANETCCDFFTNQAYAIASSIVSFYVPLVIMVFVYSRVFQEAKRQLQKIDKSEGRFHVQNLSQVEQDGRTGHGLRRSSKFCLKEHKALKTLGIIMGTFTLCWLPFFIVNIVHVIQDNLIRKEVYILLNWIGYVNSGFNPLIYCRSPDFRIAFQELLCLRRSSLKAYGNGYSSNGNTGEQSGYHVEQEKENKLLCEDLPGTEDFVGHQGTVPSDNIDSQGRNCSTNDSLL
Chain of Potassium channel subfamily K member 3 (O14649 whole entry): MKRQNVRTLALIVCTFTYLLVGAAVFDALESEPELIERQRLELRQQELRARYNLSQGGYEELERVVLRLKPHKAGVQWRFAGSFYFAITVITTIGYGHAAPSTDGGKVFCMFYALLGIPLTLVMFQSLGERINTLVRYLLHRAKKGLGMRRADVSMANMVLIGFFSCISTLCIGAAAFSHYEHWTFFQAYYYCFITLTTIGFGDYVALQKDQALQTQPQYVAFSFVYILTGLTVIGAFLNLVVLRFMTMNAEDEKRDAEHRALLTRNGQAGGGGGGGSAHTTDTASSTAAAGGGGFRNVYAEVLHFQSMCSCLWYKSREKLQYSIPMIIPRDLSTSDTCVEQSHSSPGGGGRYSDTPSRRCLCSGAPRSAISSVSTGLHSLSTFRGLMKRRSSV
Chain of Paired box protein Pax-8 (Q06710 whole entry): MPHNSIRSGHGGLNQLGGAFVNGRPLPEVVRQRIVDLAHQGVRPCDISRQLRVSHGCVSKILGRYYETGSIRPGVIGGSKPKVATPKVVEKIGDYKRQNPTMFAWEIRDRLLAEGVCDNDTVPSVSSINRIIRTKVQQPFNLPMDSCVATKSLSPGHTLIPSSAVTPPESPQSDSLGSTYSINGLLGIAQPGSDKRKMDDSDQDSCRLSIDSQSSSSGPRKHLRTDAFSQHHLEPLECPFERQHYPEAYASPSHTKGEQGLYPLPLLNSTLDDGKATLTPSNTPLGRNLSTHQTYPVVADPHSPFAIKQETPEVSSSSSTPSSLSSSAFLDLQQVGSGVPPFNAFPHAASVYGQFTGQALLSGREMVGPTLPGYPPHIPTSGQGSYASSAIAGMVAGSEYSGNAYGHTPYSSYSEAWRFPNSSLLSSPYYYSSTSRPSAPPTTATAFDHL
Chain of Potassium channel subfamily K member 9 (Q9NPC2 whole entry): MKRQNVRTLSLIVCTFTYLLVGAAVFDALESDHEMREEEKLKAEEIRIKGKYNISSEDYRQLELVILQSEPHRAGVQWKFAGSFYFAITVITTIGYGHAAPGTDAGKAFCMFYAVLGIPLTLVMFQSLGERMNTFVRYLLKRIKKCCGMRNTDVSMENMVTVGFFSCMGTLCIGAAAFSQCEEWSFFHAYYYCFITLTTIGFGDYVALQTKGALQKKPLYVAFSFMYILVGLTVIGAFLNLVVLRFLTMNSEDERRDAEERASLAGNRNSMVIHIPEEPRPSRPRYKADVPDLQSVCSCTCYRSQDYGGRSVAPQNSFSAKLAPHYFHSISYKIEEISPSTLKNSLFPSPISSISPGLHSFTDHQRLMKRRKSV

O=C(CSc1nc2nncc-2c(O)[nH]1)Nc1nccs1
inactive: EC50 [1] > 67.6 µM | IC50 [2] > 67.6 µM

CCCCCCn1c(=O)c(C(=O)Nc2ncccc2C)c(O)c2ccccc21
active: AC50 [3] 5.24 µM | AC50 [4] 4.02 µM | AC50 [5] 3.78 µM | EC50 (Streptococcus) 1.98 µM | AC50 [6] 28.6 µM | AC50 [7] 5.77 µM | EC50 [8] 0.566 µM | AC50 (INS1) 7.92 µM

C[C@H](NC(=O)c1nc[nH]c1C(=O)NC(c1ccccc1)c1ccccc1)C(=O)OCc1ccccc1
inactive: IC50 [9] > 69.5 µM

O=C1CCCCC1Sc1nnc(-c2ccc3c(c2)OCO3)o1 (configuration not stated)
active: AC50 [3] 2.73 µM | AC50 [4] 6.84 µM | AC50 [5] 41.9 µM | AC50 (HEK293) 0.841 µM | AC50 [7] 12.3 µM

O=C(Cc1nnc(NC(=O)Nc2ccccc2)s1)NCc1ccccc1
inactive: EC50 [10] > 29.9 µM | IC50 (cells [11]) > 29.9 µM | IC50 [12] > 29.9 µM | EC50 (cells [13]) > 29.9 µM

O=C(Nc1cccc(Cl)c1)OCCOCCOC(=O)Nc1cccc(Cl)c1
inactive: IC50 [14] 12.9 µM | IC50 [9] > 69.4 µM

CC(C)(C)NC(=O)C(c1cc2ccccc2o1)n1c(-c2ccc(-c3ccccc3)cc2)nc2ccccc21 (configuration not stated)
inactive: EC50 [1] > 67.6 µM | EC50 (cells [15]) > 67.6 µM | EC50 [16] > 67.6 µM | IC50 [2] > 67.6 µM

C[C@@H]1CN([C@H](C)CO)C(=O)c2cccc(NC(=O)c3ccncc3)c2O[C@H]1CN(C)Cc1ccc(C(F)(F)F)cc1
active: IC50 [17] 0.048 µM | AC50 [18] 0.0597 µM | AC50 [19] 0.0647 µM | AC50 [20] 0.344 µM

COc1ccc(S(=O)(=O)Nc2ccc3c(c2)CC(=O)N([C@@H](C)CO)C[C@@H](C)[C@H](CN(C)Cc2ccc(C(F)(F)F)cc2)O3)cc1
active: AC50 [3] 13.4 µM | AC50 [4] 18.5 µM | AC50 [21] 25.5 µM | AC50 [22] 24.4 µM | AC50 (Paired box protein Pax-8) 6.77 µM | AC50 [23] 29.5 µM

CNC(=O)[C@@H](NC(=O)[C@H](CC(C)C)[C@H](O)C(=O)NO)C(C)(C)C
active: IC50 [24] 0.0607 µM | IC50 [14] 0.0358 µM

O=C(Nc1cccc(NC(=O)c2ccccc2)c1)c1ccccc1
active: IC50 [25] 0.024 µM

Cc1cccc(C(=O)Nc2cccc(NC(=O)c3ccccc3C(F)(F)F)c2)c1
active: IC50 [26] 12.9 µM

CC(Oc1ccc(Cl)cc1Cl)c1nc(-c2ccc(NC(=O)c3ccco3)cc2)no1 (configuration not stated)
inactive: IC50 [29] > 109 µM | IC50 [31] > 83.3 µM
active: EC50 [27] 7.06 µM | CC50 [28] 20.2 µM | EC50 (Streptococcus) 25.7 µM | EC50 [30] 0.204 µM | EC50 [8] 21.7 µM
> 150 µM (not active): EC50 (Streptokinase A)

c1ccc(CC2=NCCN2)cc1 [TOLAZOLINE HYDROCHLORIDE]
active: EC50 [10] 1.01 µM | IC50 [12] 4.74 µM
inactive: IC50 (cells [11]) > 29.9 µM | EC50 (cells [13]) > 29.9 µM
